In brackets after ≈: the same amount, converted by molar mass.
assay: physchem; conditions: DMSO

| SMILES | solubility [µM] |
| --- | --- |
| CCCNC(=O)c1nnc2c(-c3cc(C)ccc3C)cccc2c1N | 1.4 (≈ 0.468 µg/mL) |
| CCCNC(=O)c1nnc2c(-c3cccc(C)c3)cccc2c1N | 8 (≈ 2.56 µg/mL) |
| CCCNC(=O)c1nnc2c(-c3ccccc3C)cccc2c1N | 26.8 (≈ 8.59 µg/mL) |
| CCCNC(=O)c1nnc2c(-c3ccc(C)cc3C)cccc2c1N | 0.8 (≈ 0.268 µg/mL) |
| CCCNC(=O)c1nnc2c(-c3cc(C)cc(C)c3)cccc2c1N | 0.8 (≈ 0.268 µg/mL) |
| CCNC(=O)c1nnc2c(-c3cc(OC)ccc3OC)cccc2c1N | 8.2 (≈ 2.89 µg/mL) |
| COc1ccc(OC)c(-c2cccc3c(N)c(C(=O)NCCC(F)(F)F)nnc23)c1 | 2.8 (≈ 1.18 µg/mL) |
| COc1ccc(OC)c(-c2cccc3c(N)c4c(nc23)CN(C2CCCC2)C4=O)c1 | 2.9 (≈ 1.17 µg/mL) |
| CCN1Cc2nc3c(-c4cc(OC)ccc4OC)cccc3c(N)c2C1=O | 0.5 (≈ 0.182 µg/mL) |
| COc1ccc(OC)c(-c2cccc3c(N)c4c(nc23)CN(C2CCC2)C4=O)c1 | 2.3 (≈ 0.896 µg/mL) |
| COc1ccc(OC)c(-c2cccc3c(N)c4c(nc23)CN(C2CC2)C4=O)c1 | 4.9 (≈ 1.84 µg/mL) |
| CCCNC(=O)c1nnc2c(-c3cc(OC)ccc3OC)c(F)ccc2c1N | 3.3 (≈ 1.27 µg/mL) |
| COc1ccc(OC)c(-c2c(F)ccc3c(N)c4c(nc23)CN(C2CCC2)C4=O)c1 | 1 (≈ 0.407 µg/mL) |
| COc1ccc(OC)c(-c2c(F)ccc3c(N)c4c(nc23)CN(C2CC2)C4=O)c1 | 1 (≈ 0.393 µg/mL) |
| CCN1Cc2nc3c(-c4cc(OC)ccc4OC)c(F)ccc3c(N)c2C1=O | 0.3 (≈ 0.114 µg/mL) |
| CCCNC(=O)c1nnc2c(-c3cnc(OC)nc3OC)cccc2c1N | 1.9 (≈ 0.7 µg/mL) |
| CCCNC(=O)c1nnc2c(-c3cnccc3OC)cccc2c1N | 28.1 (≈ 9.48 µg/mL) |
| CCCNC(=O)c1nnc2c(-c3cc(C)ccc3OC)cccc2c1N | 8.3 (≈ 2.91 µg/mL) |

The remaining lines, values ahead:

| solubility [µM] | SMILES |
| --- | --- |
| 2 (≈ 0.811 µg/mL) | CCC(C)(C)N1Cc2nc3c(-c4cc(OC)ccc4OC)cccc3c(N)c2C1=O |
| 3.4 (≈ 1.06 µg/mL) | CCCN1Cc2nc3c(CC(C)(C)C)cccc3c(N)c2C1=O |
| 4.6 (≈ 1.32 µg/mL) | CCCNC(=O)c1nnc2c(CC(C)C)cccc2c1N |
| 9.5 (≈ 2.91 µg/mL) | CCCNC(=O)c1nnc2c(-c3ccccc3)cccc2c1N |
| 8.9 (≈ 3.24 µg/mL) | COc1ccc(OC)c(-c2cccc3c(N)c(C(=O)NC4CC4)nnc23)c1 |
| 1.8 (≈ 0.706 µg/mL) | COc1ccc(OC)c(-c2cccc3c(N)c(C(=O)NC4CC(C)C4)nnc23)c1 (stereo not given) |
| 4.3 (≈ 1.63 µg/mL) | COc1ccc(OC)c(-c2cccc3c(N)c(C(=O)NC4CCC4)nnc23)c1 |
| 4.7 (≈ 1.72 µg/mL) | COc1ccc(OC)c(-c2cccc3c(N)c(C(=O)NC(C)C)nnc23)c1 |
| 11 (≈ 4.21 µg/mL) | COc1ccc(OC)c(-c2cccc3c(N)c(C(=O)NCCCO)nnc23)c1 |
| 2.6 (≈ 0.88 µg/mL) | CNC(=O)c1nnc2c(-c3cc(OC)ccc3OC)cccc2c1N |
| 1.2 (≈ 0.457 µg/mL) | CCC(C)NC(=O)c1nnc2c(-c3cc(OC)ccc3OC)cccc2c1N (stereo not given) |
| 0.9 (≈ 0.363 µg/mL) | COc1ccc(OC)c(-c2cccc3c(N)c4c(nc23)CN(C2CC(C)C2)C4=O)c1 (stereo not given) |
| 0.8 (≈ 0.28 µg/mL) | COc1ccc(OC)c(-c2cccc3c(N)c4c(nc23)CN(C)C4=O)c1 |
| 8.8 (≈ 3.37 µg/mL) | COc1ccc(OC)c(-c2c(F)ccc3c(N)c(C(=O)NC4CC4)nnc23)c1 |
| 2.8 (≈ 1.11 µg/mL) | COc1ccc(OC)c(-c2c(F)ccc3c(N)c(C(=O)NC4CCC4)nnc23)c1 |
| 5 (≈ 1.85 µg/mL) | CCNC(=O)c1nnc2c(-c3cc(OC)ccc3OC)c(F)ccc2c1N |
| 7.8 (≈ 3 µg/mL) | COc1ccc(OC)c(-c2c(F)ccc3c(N)c(C(=O)NC(C)C)nnc23)c1 |
| 2 (≈ 0.767 µg/mL) | COc1ccc(-c2c(F)ccc3c(N)c(C(=O)NC4CC4)nnc23)c(OC)n1 |
| 6.2 (≈ 2.38 µg/mL) | COc1cc(-c2c(F)ccc3c(N)c(C(=O)NC4CC4)nnc23)c(OC)nn1 |
| 10.8 (≈ 3.77 µg/mL) | COc1ncc(C)cc1-c1cccc2c(N)c(C(=O)NC3CC3)nnc12 |
| 3.9 (≈ 1.43 µg/mL) | CCCNC(=O)c1nnc2c(-c3cc(OC)ccc3OC)cccc2c1N [AZD6280] |
| 7.6 (≈ 2.69 µg/mL) | CCCNC(=O)c1nnc2c(-c3c(F)cccc3OC)cccc2c1N [AZD7325] |

— ChEMBL document CHEMBL1782003, “Development and SAR of functionally selective allosteric modulators of GABAA receptors” (Bioorg Med Chem, 2011)
